# Measured values published in PMC4654502, “Early Gelatinase Activity Is Not a Determinant of Long-Term Recovery after Traumatic Brain Injury in the Immature Mouse” (PLoS ONE, 2015).
# Key:
# MMP-2 = test: Inhibition constant for MMP-2; format: biochemical; conditions: more potent than the parent compound
# gelatinase activity = test: In situ zymography (DQ-gelatin) of brain sections after TBI at p21; format: in vivo, mouse; conditions: 25 mg/kg s.c. at 2, 4, 24 and 48 h post-injury; brains 1 h after last injection
# Procedure: The treatment regime was based upon several considerations. […] Thirdly, we limited treatment to a period of 48 h post-injury in order to minimize potential off-target effects on ongoing brain development processes at this time, given the known roles that these gelatinases play in postnatal synaptic maturation. For acute studies (gelatin zymography and histology) animals were euthanized at 4 hours and for in situ zymography, they were euthanized 1 hour after the last injection. For long-term studies (behavioral and cognitive assessments and histology) animals were euthanized at ~2 months post-injury. Euthanasia was by overdose with 2.5% Avertin i.p. followed by decapitation or cardiac transperfusion as described below.
# One hour after the last injection, brains were collected and embedded in optimal cutting temperature medium (OCT, Tissue-Tek, CA). The tissue blocks were cryosectioned at 10μm thickness and subjected to in-situ zymography, as described by Oh et al.. Briefly, the sectioned tissues were stained with DQ-gelatin (Molecular Probes, Inc., OR, USA) to detect gelatinase activity, followed by incubation with DAPI solution to detect nuclei. […]
# [1] = system: controlled cortical impact TBI at p21; test: Resident-intruder test at adulthood after TBI at p21; format: in vivo, male C57Bl/6J mice; conditions: 25 mg/kg s.c. at 2, 4, 24, 48 h post-injury; tested at adulthood
# Procedure: (§1) The controlled cortical impact model of TBI was used as previously described. TBI to the p21 mouse approximates a toddler-aged child, based upon the structural, biochemical and behavioral characteristics of this age. Pups were anaesthetized with 1.25% 2,2,2-tribromoethanol (Avertin; Sigma-Aldrich, St. Louis, MO) in isotonic saline (i.p. bolus at 0.02 mL/g body weight). After craniotomy, mice were subjected to a controlled cortical impact at 4.5 m/s velocity and 1.73 mm depth of penetration, for a sustained depression of 150 ms, using a 3.0 mm convex impactor tip. Mice were maintained on a water-circulating heating pad throughout surgery and recovery. Following impact, the scalp was closed with sutures and each animal administered 0.5 ml of isotonic saline subcutaneously (s.c.) to prevent post-operative dehydration. Sham-operated mice underwent identical surgical procedures, including craniotomy, without receiving the cortical impact. All mice were closely monitored for 1–2 hours post-surgery until return of the righting reflex and full mobilization. […]
# To assess social investigative behaviors, a novel stimulus mouse (matched for strain, age and sex) was presented into the established home cage of the test mouse, and investigative behaviors were quantified from video recordings as previously described.
# [2] = system: controlled cortical impact TBI at p21; test: Acute cell death (TUNEL, activated caspase-3) at 48 h after TBI at p21; format: in vivo, male C57Bl/6J mice; conditions: 48 h post-injury; 25 mg/kg s.c.
# Procedure: as §1, with “Sham-operated mice underwent identical surgical procedures, including craniotomy, without receiving the cortical impact.” left out
# Brain injured animals and sham controls were euthanized at 2 d post-injury. Dying cells were detected by double-labeling for terminal deoxynucleotidyl transferase-mediated dUTP nick 3’-end labeling (TUNEL) in combination with immunofluorescence for activated (cleaved) caspase-3, a hallmark of apoptosis. […] Immuno-positive cells with DAPI-positive nuclei were counted using Metamorph analysis software (Molecular Devices, Sunnyvale, CA).
# [3] = Body weight after surgery at p21; format: in vivo, male C57Bl/6J mice; conditions: 25 mg/kg s.c. at 2, 4, 24, 48 h post-injury or sham-operation
# Procedure: The controlled cortical impact model of TBI was used as previously described. TBI to the p21 mouse approximates a toddler-aged child, based upon the structural, biochemical and behavioral characteristics of this age. Pups were anaesthetized with 1.25% 2,2,2-tribromoethanol (Avertin; Sigma-Aldrich, St. Louis, MO) in isotonic saline (i.p. bolus at 0.02 mL/g body weight). After craniotomy, mice were subjected to a controlled cortical impact at 4.5 m/s velocity and 1.73 mm depth of penetration, for a sustained depression of 150 ms, using a 3.0 mm convex impactor tip. Mice were maintained on a water-circulating heating pad throughout surgery and recovery. Following impact, the scalp was closed with sutures and each animal administered 0.5 ml of isotonic saline subcutaneously (s.c.) to prevent post-operative dehydration. Sham-operated mice underwent identical surgical procedures, including craniotomy, without receiving the cortical impact. All mice were closely monitored for 1–2 hours post-surgery until return of the righting reflex and full mobilization. Mice were then returned to group-housing, and weighed post-surgery at days 1, 3, and weekly thereafter till the end of the study.
# MMP-9 or MMP-2 = conditions: compared with SB-3CT; cited from earlier work
# TBI in adult mice = conditions: equivalent dose; cited from earlier work
smiles,measurement,setting,value
O=S(=O)(CC1CS1)c1ccc(Oc2ccc(O)cc2)cc1 (centres unmarked) [p-OH SB-3CT],potency at inhibiting MMP-2 relative to parent compound SB-3CT,MMP-2,5 fold
same,gelatinase activity post-injury (in situ zymography) compared to vehicle control,gelatinase activity,attenuated gelatinase activity
same,injury-induced reduction in social investigation (resident-intruder),[1],independent of treatment with p-OH SB-3CT
same,cell death by TUNEL staining compared to vehicle-treated controls,[2],A similar degree of cell death
same,cell death by activated caspase-3 compared to vehicle-treated controls,[2],A similar degree of cell death
same,animal weight over development,[3],no differences between treatment or injury groups
same,residence time (how long the drug is bound to the target MMPs),MMP-9 or MMP-2,considerably longer than that of SB-3CT
same,functional and neuropathological outcomes after severe TBI in adult mice,TBI in adult mice,treatment-dependent improvement in functional and neuropathological outcomes
